Laboratory results taken from ChEMBL document CHEMBL6120939, “STATs, promising targets for the treatment of autoimmune and inflammatory diseases” (Eur J Med Chem, 2024).

Tests used:
[1] = target: Signal transducer and activator of transcription 3 (Homo sapiens, UniProt P40763); experiment: Inhibition of STAT3 phosphorylation in human HepG2 cells by immuno-fluorescence analysis; type: cell-based
Mus musculus [2] = experiment: Anti-asthmatic activity in OVA-induced ip dosed female BALB/c mouse model assessed as reduction in pulmonary IL-13 level administered for 30 min measured after 21 days by ELISA; type: functional, organism-based
Rattus norvegicus = experiment: Antiinflammatory activity against TNBS-induced colitis in Sprague-Dawley rat model assessed as reduction in colon TNFalpha level at 1 mg/kg, po administered for 5 days by ELISA; type: functional, organism-based; conditions: 120 h
Mus musculus [3] = experiment: Anti-inflammatory activity against DSS-induced acute colitis C57BL/6J mouse model assessed as reduction in IL-1beta level in colon at 10 to 20 mg/kg, po measured for 7 days by ELISA analysis; type: functional, organism-based; conditions: 168 h
[4] = Inhibition of C57BL/6 mouse Th17 cell differentiation from CD4+ T cells assessed as reduction in IL-17a mRNA expression incubated for 96 hrs by qPCR analysis; type: functional, cell-based; conditions: C57BL/6, Th17, 96 h

Chain of Signal transducer and activator of transcription 3 (P40763 whole entry): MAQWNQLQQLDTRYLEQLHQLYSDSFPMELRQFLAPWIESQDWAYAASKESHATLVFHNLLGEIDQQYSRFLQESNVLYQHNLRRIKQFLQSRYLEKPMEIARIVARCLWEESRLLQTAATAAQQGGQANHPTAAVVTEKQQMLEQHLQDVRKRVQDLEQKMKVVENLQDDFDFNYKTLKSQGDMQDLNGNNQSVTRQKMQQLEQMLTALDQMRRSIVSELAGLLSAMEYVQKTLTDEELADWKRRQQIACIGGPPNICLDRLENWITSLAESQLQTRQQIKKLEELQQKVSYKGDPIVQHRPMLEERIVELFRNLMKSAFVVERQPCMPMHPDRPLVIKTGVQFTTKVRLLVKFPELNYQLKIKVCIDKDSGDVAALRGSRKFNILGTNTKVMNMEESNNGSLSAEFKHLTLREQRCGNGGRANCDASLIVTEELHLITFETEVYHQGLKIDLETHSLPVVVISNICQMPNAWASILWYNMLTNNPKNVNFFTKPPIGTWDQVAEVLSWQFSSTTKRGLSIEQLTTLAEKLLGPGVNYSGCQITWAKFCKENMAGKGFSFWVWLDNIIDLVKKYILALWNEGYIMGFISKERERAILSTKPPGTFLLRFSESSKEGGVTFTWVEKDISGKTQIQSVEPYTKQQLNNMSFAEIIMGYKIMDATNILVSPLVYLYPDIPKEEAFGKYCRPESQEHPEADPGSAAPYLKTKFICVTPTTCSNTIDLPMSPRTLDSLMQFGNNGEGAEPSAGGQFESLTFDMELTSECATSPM

Question: For `CC1CC(=O)c2c(ccc3c2C(=O)c2cccc(O)c2C3=O)C1` (stereo not drawn), which IC50 [1] is on record?
Answer: 12200 nM

Question: With `NC(=O)c1cnc(Nc2ccc(N3CCOCC3)cc2)nc1NCc1c(F)ccc(F)c1F` as the molecule, how does the IC50 (Mus musculus [2]) read?
Answer: 0.7 nM

Question: For `COc1ccc(S(=O)(=O)Nc2cc(-c3c(O)ccc4ccccc34)c(O)c3ccccc23)cc1` [C-188-9], which IC50 (Rattus norvegicus) is on record?
Answer: 4000 nM

Question: For `NC(=O)c1cnc(NCCc2ccc(O)c(Cl)c2)nc1NCc1ccccc1`, which IC50 (Mus musculus [2]) is on record?
Answer: 21 nM

Question: Which IC50 (Mus musculus [3]) does the source give for `Cc1cc(OCCCS(C)(=O)=O)cc(C)c1-c1cccc(COc2ccc3c(c2)OC[C@H]3CC(=O)O)c1` [FASIGLIFAM] here?
Answer: 4740 nM

Question: Which IC50 [4] does the source give for `NS(=O)(=O)c1cccc2c1C(=O)c1cccc(O)c1C2=O` here?
Answer: 180 nM

Question: For `Cc1ccc(S(=O)(=O)OCC(=O)Nc2ccc(C(=O)O)c(O)c2)cc1`, which IC50 (Rattus norvegicus) is on record?
Answer: 86000 nM

Question: Which IC50 [4] does the source give for `CN(C)C(=O)Oc1cccc2c1C(=O)c1cccc(S(N)(=O)=O)c1C2=O` here?
Answer: 220 nM
